Like-named read-outs stand apart in the source and are kept apart here.
Columns and labels:
[1] = Porcine model of lymphatic mapping (intradermal limb injection); format: in vivo, swine
[2] = vital blue dye alone, intradermal; cited from earlier work
[3] = cited from earlier work
[4] = Human melanoma clinical trial, intraoperative sentinel lymph node fluorescence; format: in vivo; conditions: 0.001%, 1 ml intradermally in 4 locations, 3 out of 5 patients
Description: Patients with cutaneous malignant melanoma with a Breslow thickness of 0.75 mm or greater, or Clark level IV/V involvement, or ulceration were enrolled in the trial. All patients underwent preoperative lymphoscintigraphy with 99m-Technetium labeled sulfur colloid up to 24 hours before the operation. The normally used intraoperative vital blue dye was replaced by fluorescein. The initial starting dose of fluorescein was 0.001% and 1 ml was injected intradermally intraoperatively in 4 locations around the melanoma biopsy site. At this does, sentinel lymph node fluorescence was identified in 3 out of 5 patients (60%). […] The 0.01% dose was used in the subsequent phase II study.

[5] = 120 colon cancer patients, intramural bowel injection; cited from earlier work
[6] = 1,047 patients, intradermal, 10% fluorescein mixed 1:1 with 1% lidocaine hydrochloride; cited from earlier work

| Structure (SMILES) | forelimb injections leading to a SLN ([1]; swine forelimb, injected four times) | cases in which the SLN can be identified [2] | patients with anaphylactoid reaction or life threatening anaphylactic shock ([3]; 1% dye, lymphatic mapping and SLNB) | chance of a life-threatening anaphylactic event caused by injection ([3]; human, in vivo) [%] | forelimb injections developing visible fluorescence leading to a SLN ([1]; swine forelimb, one of seven injections) [%] | hindlimb injections showing lymphatic trunks under the skin leading to the SLN ([1]; swine hindlimb, nine of ten injections) [%] | patients with sentinel lymph node fluorescence identified [4] [%] | adverse reactions [5] | adverse reactions [6] |
| --- | --- | --- | --- | --- | --- | --- | --- | --- | --- |
| CCN(CC)c1ccc(C(=C2C=CC(=[N+](CC)CC)C=C2)c2cc(S(=O)(=O)[O-])ccc2S(=O)(=O)[O-])cc1.[Na+] [Lymphazurin, isosulfan blue] | failed to lead to a SLN | approximately 87% | 0.1-2% | 1 | – | – | – | – | – |
| O=C1OC2(c3ccc(O)cc3Oc3cc(O)ccc32)c2ccccc21 [fluorescein, Fluorescein] | – | – | – | – | 14 | 90 | 60 | none of the 120 patients suffered any adverse reactions | without adverse reactions |

— US20120041305A1, “LIGHT-EMITTING DYE FOR INTRAOPERATIVE IMAGING OR SENTINEL LYMPH NODE BIOPSY” (THE UNIVERSITY OF UTAH RESEARCH FOUNDATION, priority 2009, published 2012)
